According to patent US20070218105A1, “Topical Treatment with NGF and DHA in Damaged Corneas” (priority 2004, published 2007):
Where “and” joins values, the source holds several entries; their conditions need not be identical. Equal entries are not always repeated.

Assays:
Format in all cases: in vivo, New Zealand albino rabbits
Rabbit Corneas [1] = assay: Schirmer's test (tear secretion) after PRK; details: mean ± Standard Error
Method: (§1) Twenty-one New Zealand albino rabbits weighing 1.5 to 2.0 kg were obtained from a commercial supplier and were treated in accordance with the guidelines of the Association for Research in Vision and Ophthalmology. Each rabbit received intramuscular xylazine (10 mg/kg) and ketamine hydrochloride (50 mg/kg) anesthesia. Tetracaine eye drops were used as topical anesthesia. Tear secretion tests (e.g., tear break-up time, Schirmer's test, and rose bengal staining) were performed preoperatively under general anesthesia. Each rabbit received a unilateral PRK laser treatment. The corneal epithelium was removed with an epithelial scrubber (Katena Inc, Denville, N.J.). An excimer laser ablation to correct −5 diopters of myopia using a 6.5 mm optical zone (Lasersight Technologies, Inc., Winter Park, Fla.) was performed. The eye was washed with balanced salt solution. Lubricating eye drops and an ophthalmic solution of 0.3% ofloxacin eye drops (Allergan Inc, Irvine, Calif.) were used postoperatively. Unless otherwise indicated, all chemicals were purchased from Sigmna Chemical Co. (St. Louis, Mo.).
Twenty-one New Zealand albino rabbits were divided in 4 groups. The three experimental groups consisted of 6 rabbits each. The control group had only 3 rabbits. The rabbits within each of the four groups were randomized to receive twice-weekly topical treatments through 72-hour collagen shields (Oasis Medical Inc.; Glendora, Calif.) for a total of eight weeks. […]
(§2) Statistical analyses were performed using the Statistical Analysis System (SAS) software version 9.0 (SAS Institute, Cary, N.C.). The tear secretion tests (Schirmer, tear break-up time and rose bengal staining) and density of nerve areas were analyzed using a repeated measures design in the analysis of variance (ANOVA). The differences in the tear secretion tests between the four treatment groups were analyzed at each time point. The effect of the various treatments on tubulin III-, CGRP- and SP-positive epithelial and sub-basal nerve areas was evaluated with a multivariate test. […]

Rabbit Corneas [2] = assay: Tear break-up time after PRK; details: for Tear Break-Up Time: mean ± Standard Error
Method: as §1
(§3) Twenty-one New Zealand albino rabbits were divided in 4 groups. The three experimental groups consisted of 6 rabbits each. The control group had only 3 rabbits. The rabbits within each of the four groups were randomized to receive twice-weekly topical treatments through 72-hour collagen shields (Oasis Medical Inc.; Glendora, Calif.) for a total of eight weeks. The four treatments were as follows: (1) 0.1 μg NGF (25 μl) plus 100 μl phosphate buffered saline (PBS); (2) 100 μg DHA (100 μl) plus 25 μl of PBS; (3) 0.1 μg NGF (25 μl) plus 100 μg DHA (100 μl); and (4) 125 μl of PBS with albumin (control). In all animals, a tarsorrhaphy was performed on the treated eyes, and the eyes were opened only twice a week to introduce a new collagen shield.
Statistical analyses were performed using the Statistical Analysis System (SAS) software version 9.0 (SAS Institute, Cary, N.C.). The tear secretion tests (Schirmer, tear break-up time and rose bengal staining) and density of nerve areas were analyzed using a repeated measures design in the analysis of variance (ANOVA). The differences in the tear secretion tests between the four treatment groups were analyzed at each time point. The effect of the various treatments on tubulin III-, CGRP- and SP-positive epithelial and sub-basal nerve areas was evaluated with a multivariate test. Comparisons among the four treatments groups were made using adjusted least square means with alpha levels corrected by a simulation method.
Tear secretion tests (tear break-up time, Schirmer's test and rose bengal staining) were performed every 15 days over the 8-week period following PRK. All the tests were performed with general anesthesia. […]

Rabbit Corneas [3] = assay: Rose bengal staining after PRK; details: first postoperative month (30 days after PRK)
Method: as §1, with “The eye was washed with balanced salt solution. Lubricating eye drops and an ophthalmic solution of 0.3% ofloxacin eye drops (Allergan Inc, Irvine, Calif.) were used postoperatively. Unless otherwise indicated, all chemicals were purchased from Sigmna Chemical Co. (St. Louis, Mo.).” left out
as §2

corneal epithelium = assay: Ki-67 immunostaining of proliferating cells in corneal epithelium after PRK; details: 8 weeks after PRK
Method: as §3, with “In all animals, a tarsorrhaphy was performed on the treated eyes, and the eyes were opened only twice a week to introduce a new collagen shield.” left out
(§4) Rabbits were humanely euthanized at 8 weeks post-PRK surgery using an intravenous overdose of pentobarbital. […] Each section was evaluated with hematoxylin and eosin (H&E) stain and by immuno-histochemical analysis. […]
Photographs of the tissue sections were acquired using MetaVue version 5.0r3 (Universal Imaging Corp.; Downingtown, Pa.) and saved as a TIFF file. (Data not shown) The tubulin III-, CGRP- and SP-positive tissue nerve areas and the percentage of Ki-67 cells were calculated with respect to the total area using the image analysis program Image Pro Plus 4.5 (Media Cybernetics Inc., Silver Spring, Md.). Sub-basal and epithelial nerve areas were measured in all groups eight weeks after PRK using anti-class III β tubulin, CGRP and SP monoclonal antibodies. […]

[4] = test system: sub-basal and epithelial nerve bundles; assay: Class III β-tubulin staining of sub-basal and epithelial nerve bundle area after PRK; details: 8 weeks after PRK
Method: as §3, with “In all animals, a tarsorrhaphy was performed on the treated eyes, and the eyes were opened only twice a week to introduce a new collagen shield.” left out
as §2, §4

CC/C=C\C/C=C\C/C=C\C/C=C\C/C=C\C/C=C\CCC(=O)O [DHA, docosahexaenoic acid]
Schirmer's Test (Rabbit Corneas [1]; 15 Days after PRK): 10 mm and 10.0 ± 3.7 mm | Schirmer's Test (Rabbit Corneas [1]; 30 Days (1 month) after PRK): 11.5 mm and 11.5 ± 3.4 mm | Schirmer's Test (Rabbit Corneas [1]; 45 Days after PRK): 12.5 ± 2.3 mm | tear break-up time measurement (Rabbit Corneas [2]; 1 week postoperative): 14.5 s | Tear Break-Up Time (Rabbit Corneas [2]; 15 Days after PRK): 14.5 ± 6.2 s | Tear Break-Up Time (Rabbit Corneas [2]; 30 Days (1 month) after PRK): 14.0 s and 14.0 ± 4.8 s | Tear Break-Up Time (Rabbit Corneas [2]; 45 Days after PRK): 14.0 ± 4.0 s | eyes with positive rose bengal staining (Rabbit Corneas [3]): 33% | percentage of Ki-67 positive epithelial cells (corneal epithelium): 6% | average ratio of sub-basal tubulin-positive nerve bundle area to total area ([4]; FIG. 2A): ~1.2 | ratio of the tubulin positive nerve bundle area to the total epithelial area ([4]; epithelial layer, FIG. 2B): no significant effect
